Experimental data from patent publication US8563542B2 (Cyclacel Limited, priority 2007, dated 2013).
Where a name gives a salt, the structure may show the parent alone. Read-outs that look alike come from different tables or passages of the source.

Molecular target: PLK1 (Homo sapiens, UniProt P53350)
Test: PLK1 protein kinase assay (CDC25C phosphorylation, [γ-32P]-ATP)
Type: biochemical
Conditions: for Ki: Table 6

Sequence of PLK1 (P53350 whole entry): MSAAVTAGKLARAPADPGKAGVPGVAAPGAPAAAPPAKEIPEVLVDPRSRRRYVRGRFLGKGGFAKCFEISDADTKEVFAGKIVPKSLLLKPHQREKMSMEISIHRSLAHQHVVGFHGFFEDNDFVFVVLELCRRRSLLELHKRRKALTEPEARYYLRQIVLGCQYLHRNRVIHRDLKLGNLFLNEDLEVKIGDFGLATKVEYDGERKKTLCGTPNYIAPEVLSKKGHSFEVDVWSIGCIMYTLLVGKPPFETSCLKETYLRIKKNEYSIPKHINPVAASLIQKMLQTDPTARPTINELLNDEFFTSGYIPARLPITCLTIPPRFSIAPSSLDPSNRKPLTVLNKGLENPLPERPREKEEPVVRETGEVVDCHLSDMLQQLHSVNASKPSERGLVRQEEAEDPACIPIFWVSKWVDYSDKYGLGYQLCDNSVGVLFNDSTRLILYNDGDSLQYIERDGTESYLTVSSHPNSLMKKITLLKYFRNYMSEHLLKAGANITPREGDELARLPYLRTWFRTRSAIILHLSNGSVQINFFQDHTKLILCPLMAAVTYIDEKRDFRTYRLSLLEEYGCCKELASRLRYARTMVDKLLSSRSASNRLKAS

Compound	IC50 (Table 1, read-out: PLK1 IC50)	also measured
COc1cc(C(=O)N[C@H]2CC[C@@H](N3CCN(Cc4ccccc4)CC3)CC2)ccc1Nc1ncc2c(n1)N(C1CCCC1)CC1(CC1)C(=O)N2C [Compound 387, N-((cis)-4-(4-benzylpiperazin-1-yl)cyclohexyl)-4-(9′-cyclopentyl-5′-methyl-6′-oxo-5′,6′,8′,9′-tetrahydrospiro[cyclopropane-1,7′-pyrimido[4,5-b][1,4]diazepine]-2′-ylamino)-3-methoxybenzamide]		IC50 (Table 3, read-out: PLK1 IC50): 100 to 1000 nM
COc1cc(C(=O)N[C@H]2CC[C@H](N3CCOCC3)CC2)ccc1Nc1ncc2c(n1)N(C1CCCC1)CC(C)(C)C(=O)N2C [Compound 388, 4-(9-cyclopentyl-5,7,7-trimethyl-6-oxo-6,7,8,9-tetrahydro-5H-pyrimido[4,5-b][1,4]diazepin-2-ylamino)-3-methoxy-N-((trans)-4-morpholinocyclohexyl)benzamide]		IC50 (Table 3, read-out: PLK1 IC50): < 100 nM
COc1cc(C(=O)N[C@H]2CC[C@@H](N3CCOCC3)CC2)ccc1Nc1ncc2c(n1)N(C1CCCC1)CC(C)(C)C(=O)N2C [Compound 389, 4-(9-cyclopentyl-5,7,7-trimethyl-6-oxo-6,7,8,9-tetrahydro-5H-pyrimido[4,5-b][1,4]diazepin-2-ylamino)-3-methoxy-N-((cis)-4-morpholinocyclohexyl)benzamide]		IC50 (Table 3, read-out: PLK1 IC50): 100 to 1000 nM
COc1cc(C(=O)N[C@H]2CC[C@H](N3CCOCC3)CC2)ccc1Nc1ncc2c(n1)N(C1CCCC1)CC1(CC1)C(=O)N2C [Compound 390, 4-(9′-cyclopentyl-5′-methyl-6′-oxo-5′,6′,8′,9′-tetrahydrospiro[cyclopropane-1,7′-pyrimido[4,5-b][1,4]diazepine]-2′-ylamino)-3-methoxy-N-((trans)-4-morpholinocyclohexyl)benzamide]		IC50 (Table 3, read-out: PLK1 IC50): < 100 nM
COc1cc(C(=O)N[C@H]2CC[C@@H](N3CCOCC3)CC2)ccc1Nc1ncc2c(n1)N(C1CCCC1)CC1(CC1)C(=O)N2C [Compound 391, 4-(9′-cyclopentyl-5′-methyl-6′-oxo-5′,6′,8′,9′-tetrahydrospiro[cyclopropane-1,7′-pyrimido[4,5-b][1,4]diazepine]-2′-ylamino)-3-methoxy-N-((cis)-4-morpholinocyclohexyl)benzamide]		IC50 (Table 3, read-out: PLK1 IC50): < 100 nM
COc1cc(C(=O)NN2CCCC2)ccc1Nc1ncc2c(n1)N(C1CCCC1)CC1(CC1)C(=O)N2C [Example [I-253] of WO 07/095188, reference compound]		Ki: < 10 nM
COc1cc(C(=O)NC2CCN(C)CC2)ccc1Nc1ncc2c(n1)N(C1CCCC1)CC1(CCC1)C(=O)N2C [WO 2007/095188 [I-64], reference compound]		IC50 (Table 4, read-out: PLK1 IC50): < 100 nM
COc1cc(C(=O)NC2CCN(C)CC2)ccc1Nc1ncc2c(n1)N(C1CCCC1)CC1(CC1)C(=O)N2C [WO 2007/095188 [I-76], reference compound]		IC50 (Table 4, read-out: PLK1 IC50): < 100 nM
COc1cc(C(=O)NN2CCN(C)CC2)ccc1Nc1ncc2c(n1)N(C1CCCC1)CC1(CC1)C(=O)N2C [[254]•HCl, 4-(9′-cyclopentyl-5′-methyl-6′-oxo-5′,6′,8′,9′-tetrahydrospiro[cyclopropane-1,7′-pyrimido[4,5-b][1,4]diazepine]-2′-ylamino)-3-methoxy-N-(4-methylpiperazin-1-yl)benzamide.HCl]		Ki: < 10 nM
COc1cc(C(=O)O)ccc1Nc1ncc2c(n1)N(C1CCCC1)C(C)CC(=O)N2 (stereo not drawn) [compound 3, 4-(9-Cyclopentyl-8-methyl-6-oxo-6,7,8,9-tetrahydro-5H-pyrimido[4,5-b][1,4]diazepin-2-ylamino)-3-methoxy-benzoic acid]	< 10000 nM	
COc1cc(C(=O)O)ccc1Nc1ncc2c(n1)N(C1CCCC1)C(C)CC(=O)N2C (stereo not drawn) [compound 4, 4-(9-Cyclopentyl-5,8-dimethyl-6-oxo-6,7,8,9-tetrahydro-5H-pyrimido[4,5-b][1,4]diazepin-2-ylamino)-3-methoxy-benzoic acid]	< 10000 nM	
COc1cc(C(=O)O)ccc1Nc1ncc2c(n1)N(C1CCCCC1)C(C)CC(=O)N2 (stereo not drawn) [compound 5, 4-(9-Cyclohexyl-8-methyl-6-oxo-6,7,8,9-tetrahydro-5H-pyrimido[4,5-b][1,4]diazepin-2-ylamino)-3-methoxy-benzoic acid]	< 10000 nM	
O=C1CCN(C2CCCCC2)c2nc(Nc3ccc(O)cc3)ncc2N1 [compound 10, 9-Cyclohexyl-2-(4-hydroxy-phenylamino)-5,7,8,9-tetrahydro-pyrimido[4,5-b][1,4]diazepin-6-one]	< 10000 nM	
CC1CN(C2CCCC2)c2nc(Nc3ccc(O)cc3)ncc2NC1=O (stereo not drawn) [compound 11, 9-Cyclopentyl-2-(4-hydroxy-phenylamino)-7-methyl-5,7,8,9-tetrahydro-pyrimido[4,5-b][1,4]diazepin-6-one]	< 10000 nM	
CC1CC(=O)N(C)c2cnc(Nc3ccc(O)cc3)nc2N1C1CCCC1 (stereo not drawn) [compound 13, 9-Cyclopentyl-2-(4-hydroxy-phenylamino)-5,8-dimethyl-5,7,8,9-tetrahydro-pyrimido[4,5-b][1,4]diazepin-6-one]	< 10000 nM	
COc1cc(C(=O)NC2CCN(C)CC2)ccc1Nc1ncc2c(n1)N(C1CCCC1)CC(C)C(=O)N2 (stereo not drawn) [compound 17, 4-(9-Cyclopentyl-7-methyl-6-oxo-6,7,8,9-tetrahydro-5H-pyrimido[4,5-b][1,4]diazepin-2-ylamino)-3-methoxy-N-(1-methyl-piperidin-4-yl)-benzamide]	< 10000 nM	
COc1cc(C(=O)NC2CCN(C)CC2)ccc1Nc1ncc2c(n1)N(C1CCCC1)C(C(C)C)CC(=O)N2 (stereo not drawn) [compound 19, 4-(9-Cyclopentyl-8-isopropyl-6-oxo-6,7,8,9-tetrahydro-5H-pyrimido[4,5-b][1,4]diazepin-2-ylamino)-3-methoxy-N-(1-methyl-piperidin-4-yl)-benzamide]	< 10000 nM	
COc1cc(C(=O)NC2CCN(C)CC2)ccc1Nc1ncc2c(n1)N(C1CCCC1)CC(C)C(=O)N2C (stereo not drawn) [compound 20, 4-(9-Cyclopentyl-5,7-dimethyl-6-oxo-6,7,8,9-tetrahydro-5H-pyrimido[4,5-b][1,4]diazepin-2-ylamino)-3-methoxy-N-(1-methyl-piperidin-4-yl)-benzamide]		IC50: < 100 nM
COc1cc(C(=O)NC2CCN(C)CC2)ccc1Nc1ncc2c(n1)N(C1CCCC1)C(C(C)C)CC(=O)N2C (stereo not drawn) [compound 23, 4-(9-Cyclopentyl-8-isopropyl-5-methyl-6-oxo-6,7,8,9-tetrahydro-5H-pyrimido[4,5-b][1,4]diazepin-2-ylamino)-3-methoxy-N-(1-methyl-piperidin-4-yl)-benzamide]	< 10000 nM	
CCC(CC)N1CCC(=O)N(C)c2cnc(Nc3ccc(C(=O)NC4CCN(C)CC4)cc3OC)nc21 [compound 24, 4-[9-(1-Ethyl-propyl)-5-methyl-6-oxo-6,7,8,9-tetrahydro-5H-pyrimido[4,5-b][1,4]diazepin-2-ylamino]-3-methoxy-N-(1-methyl-piperidin-4-yl)-benzamide]	< 10000 nM	
COc1cc(C(=O)NC2CCN(C)CC2)ccc1Nc1ncc2c(n1)N(C1CCOCC1)CCC(=O)N2C [compound 26, 3-Methoxy-4-[5-methyl-6-oxo-9-(tetrahydro-pyran-4-yl)-6,7,8,9-tetrahydro-5H-pyrimido[4,5-b][1,4]diazepin-2-ylamino]-N-(1-methyl-piperidin-4-yl)-benzamide]	< 1000 nM	
CCN1C(=O)C(C)CN(C2CCCC2)c2nc(Nc3ccc(C(=O)NC4CCN(C)CC4)cc3OC)ncc21 (stereo not drawn) [compound 28, 4-(9-Cyclopentyl-5-ethyl-7-methyl-6-oxo-6,7,8,9-tetrahydro-5H-pyrimido[4,5-b][1,4]diazepin-2-ylamino)-3-methoxy-N-(1-methyl-piperidin-4-yl)-benzamide]	< 1000 nM	
COc1cc(C(=O)NC2CCN(C)CC2)ccc1Nc1ncc2c(n1)N(Cc1ccccc1)CCC(=O)N2C [compound 29, 4-(9-Benzyl-5-methyl-6-oxo-6,7,8,9-tetrahydro-5H-pyrimido[4,5-b][1,4]diazepin-2-ylamino)-3-methoxy-N-(1-methyl-piperidin-4-yl)-benzamide]	< 10000 nM	
COc1cc(C(=O)NC2CCN(C)CC2)ccc1Nc1ncc2c(n1)N(c1ccccc1)CCC(=O)N2C [compound 30, 3-Methoxy-4-(5-methyl-6-oxo-9-phenyl-6,7,8,9-tetrahydro-5H-pyrimido[4,5-b][1,4]diazepin-2-ylamino)-N-(1-methyl-piperidin-4-yl)-benzamide]	< 1000 nM	
COc1cc(C(=O)NC2CCN(C)CC2)ccc1Nc1ncc2c(n1)N(C1CCCC1)CC1(CC1)C(=O)N2C [compound 31]	< 100 nM	
COc1cc(C(=O)NC2CCN(C)CC2)ccc1Nc1ncc2c(n1)N(C1CCCC1)C(C)CC(=O)N2C (stereo not drawn) [compound 33, 4-(9-Cyclopentyl-5,8-dimethyl-6-oxo-6,7,8,9-tetrahydro-5H-pyrimido[4,5-b][1,4]diazepin-2-ylamino)-3-methoxy-N-(1-methyl-piperidin-4-yl)-benzamide]		IC50: < 1000 nM
COc1cc(C(=O)NC2CCN(C)CC2)ccc1Nc1ncc2c(n1)N(C1CCCC1)C(C)CC(=O)N2 (stereo not drawn) [compound 34, 4-(9-Cyclopentyl-8-methyl-6-oxo-6,7,8,9-tetrahydro-5H-pyrimido[4,5-b][1,4]diazepin-2-ylamino)-3-methoxy-N-(1-methyl-piperidin-4-yl)-benzamide]	< 1000 nM	
COc1cc(C(=O)NC2CCN(C)CC2)ccc1Nc1ncc2c(n1)N(C1CCCCC1)C(C)CC(=O)N2 (stereo not drawn) [compound 35, 4-(9-Cyclohexyl-8-methyl-6-oxo-6,7,8,9-tetrahydro-5H-pyrimido[4,5-b][1,4]diazepin-2-ylamino)-3-methoxy-N-(1-methyl-piperidin-4-yl)-benzamide]	< 1000 nM	
COc1cc(C(=O)NC2CCN(C)CC2)ccc1Nc1ncc2c(n1)N(C1CCCC1)CCC(=O)N2 [compound 36, 4-(9-Cyclopentyl-6-oxo-6,7,8,9-tetrahydro-5H-pyrimido[4,5-b][1,4]diazepin-2-ylamino)-3-methoxy-N-(1-methyl-piperidin-4-yl)-benzamide]	< 10000 nM	
CC1CC(=O)Nc2cnc(Nc3ccc(C(=O)NC4CCN(C)CC4)cc3)nc2N1C1CCCC1 (stereo not drawn) [compound 38, 4-(9-Cyclopentyl-8-methyl-6-oxo-6,7,8,9-tetrahydro-5H-pyrimido[4,5-b][1,4]diazepin-2-ylamino)-N-(1-methyl-piperidin-4-yl)-benzamide]	< 1000 nM	
